Test results reported in paper PMC9254247, “Dual-sensitive antibacterial peptide nanoparticles prevent dental caries” (Theranostics, 2022).

Columns and labels:
[1] = system: S. mutans UA159 biofilm; assay: Minimum biofilm inhibition concentration (MBIC50), MTT; format: cell-based, Streptococcus mutans; settings: 24 h
Procedure: Characterization analysis of pHly -1 NPs at different pHs. The morphology of pHly-1 NPs at pH 4.5 and 7.0were analyzed by TEM and AFM, respectively 3,4. TEM images were taken by a Tecnai G2 F20 microscope with an accelerating voltage of 100 kV. The final concentration of TEM samples of pHly -1 NPs was 100 μM. An 8 μL TEM sample was pipetted onto the carbon-coated copper grid surface for 3 min and removed by filter paper. Then, 8 μ L of 2 wt % uranyl acetate was dripped onto the grid for staining 3 min. After removing the droplet with filter paper, the grid was dried in a desiccator before measurement. […]
The secondary structure of pHly-1 NPs in different solutions at pH 4.5 and 7.0 was determined by Jasco-810 spectropolarimeter using 2 mm quartz slides at 25 °C.
According to the method reported in the literature5 to prepare l iposome required in the secondary structure test. […] All spectra were recorded with a wavelength interval of 0.5 nm. […] In addition, Zeta (ζ ) potentials and hydrodynamic sizes of pHly-1 NPs were measured using a Zetasizer (Malvern Instruments, UK). […]
RNA- seq Analysis. […] T he quality and quantity of the RNA were assessed by NanoDrop 2000/2000c (Thermo Scientific, Wilmington, DE, USA). RNA integrity number (RIN) was analyzed by Agilent 2100 Bioanalyzer (Agilent Technologies, Santa Clara, CA, USA). […] The cleaned reads were mapped to the S.mutans reference genome using Rockhooper26. […]

[2] = system: S. mutans UA159 biofilms on sHA; assay: Biofilm model on saliva-coated hydroxyapatite (sHA); format: cell-based, Streptococcus mutans; settings: 55 µM; pH 4.5; 10 min, total of 5 days; n = 3
Excerpt: Treatment and quantitative analysis of b iofilm model on sHA. S.mutans biofilms also formed on sHA blocks (surface area=1 ± 0.2 cm2) in 24-well plates. According to the literature10, before the experiment, hydroxyapatite (diameter, 1.25 cm; Kunshan Chinese technology new materials CO, LTD) was coated with filter-sterilized clarified human whole saliva. The biofilm formation, treatment regimen, and quantitative analysis were roughly similar to the biofilms formed on circular glass slides as described above. The differences are that the biofilms should be treated after 24 hours of formation and biofilms were treated every other day for a total of 5 days. In addition, after treatment for 5 days, the sHA blocks were washed with PBS (pH 7.0) and then fixed with 2.5 % glutaraldehyde for 10 min. After being washed another 3 times with PBS (pH 7.0) to remove the remaining glutaraldehyde, the sHA blocks were stained using 0.5% crystal violet for 20 min. The fully washed sHA blocks were observedunder a light microscope (Insein Li Fung1080P 60FPS, China).
Treatment and quantitative analysis of human derived ex vivo biofilm s. […] The total cultivable bacteria for ex vivo biofilm formation was measured to ensure the same density of added bacteria (~2× 108). […] The quantitative analysis was measured by counting the CFU of alive bacteria with agar plating after incubation for 48 h at 37 °C. […]

With [H]/N=C(\N/C(=N/[H])NCCCCCCNC(=N)NC(=N)Nc1ccc(Cl)cc1)Nc1ccc(Cl)cc1 [CHX, chlorhexidine] the MBIC50 ([1]; pH 5.5, BHI with 1% sucrose) was 0.6 µM, the MBIC50 ([1]; pH 7.0, BHI with 1% sucrose) was 0.8 µM and the “biofilm on sHA, viable cell count (CFU)” value [2] was “apparent antibiofilm efficacy”.
